Assay results: US20140179726A1, “GUT MICROFLORA AS BIOMARKERS FOR THE PROGNOSIS OF CIRRHOSIS AND BRAIN DYSFUNCTION” (priority 2011, published 2014)

Legend:
stool microbiome = assay: Stool microbiome by multitag pyrosequencing, family level, within HE group (Example 1); format: in vivo, human; parameters: normalized abundance of Streptococcaceae: unit not given here; settings: HE patients
Experimental: Interrogation of the Microbiome: Stool was collected and DNA extracted for microbiome analysis within 24 hours of collection from patients and controls using published techniques (29). We first routinely use Length Heterogeneity PCR (LH-PCR) fingerprinting of the 16S rRNA to rapidly survey our samples and standardize the community amplification. We then interrogated the microbial taxa associated with the gut fecal microbiome using Multitag Pyrosequencing (MTPS). This technique allows the rapid sequencing of multiple samples at one time yielding thousands of sequence reads per sample (12).
(§1) Microbiome Community Fingerprinting: LH-PCR was done to standardize the community analysis as previously published (21). Briefly, total genomic DNA was extracted from tissue using Bio101 kit from MP Biomedicals Inc., Montreal, Quebec as per the manufacturer's instructions. About 10 ng of extracted DNA was amplified by PCR using a fluorescently labeled forward primer 27F (5’-(6FAM) AGAGTTTGATCCTGGCTCA G-3′, SEQ ID NO: 1) and unlabeled reverse primer 355R′ (5′-GCTGCCTCCCGTAGGAGT-3′, SEQ ID NO: 2). Both primers are universal primers for Bacteria (22). The LH-PCR products were diluted according to their intensity on agarose gel electrophoresis and mixed with ILS-600 size standards (Promega) and HiDi Formamide (Applied Biosystems, Foster City, Calif.). The diluted samples were then separated on a ABI 3130x1 fluorescent capillary sequencer (Applied Biosystems, Foster City, Calif.) and processed using the Genemapper™ software package (Applied Biosystems, Foster City, Calif.). Normalized peak areas were calculated using a custom PERL script and OTUs constituting less than 1% of the total community from each sample were eliminated from the analysis to remove the variable low abundance components within the communities.
MTPS: We employed the MTPS process to characterize the microbiome from the fecal samples. Specifically, we have generated a set of 96 emulsion PCR fusion primers that contain the 454 emulsion PCR linkers on the 27F and 355R primers and a different 8 base “barcode” between the A adapter and 27F primer. Thus, each fecal sample was amplified with unique bar-coded forward 16S rRNA primers and then up to 96 samples were pooled and subjected to emulsion PCR and pyrosequenced using a GS-FLX pyrosequencer (Roche). Data from each pooled sample were “deconvoluted” by sorting the sequences into bins based on the barcodes using custom PERL scripts. Thus, we were able to normalize each sample by the total number of reads from each barcode. We have noted that ligating tagged primers to PCR amplicons distorts the abundances of the communities and thus it is critical to incorporate the tags during the original amplification step (12). Several groups have employed various barcoding strategies to analyze multiple samples and this strategy is now well accepted (38).
RDP10 Analysis: We identified the taxa present in each sample using the Bayesian analysis tool in Version 10 of the Ribosomal Database Project (RDP10). The abundances of the bacterial identifications were then normalized using a custom PERL script and taxa present at >1% of the community were tabulated. We chose this cutoff because of our a priori assumption that taxa present in <1% of the community vary between individuals and have minimal contribution to the functionality of that community and 2,000 reads per sample will only reliably identify community components that are greater than 1% in abundance (13).
The cirrhosis group was divided into those with and without HE and were compared. Data from the significant variables between HE and non-HE groups were combined in a MANOVA model. Within HE patients, comparison was made between those on lactulose alone to those with lactulose and rifaximin. Microbiome abundance comparisons between groups were made at a family level using non-parametric tests. […]

mucosal microbiome = assay: Colonic mucosal microbiome by MTPS, compared using Metastats (Example 2); format: in vivo, human; settings: colonic mucosa, HE patients
Experimental: Interrogation of the Microbiome: Stool was collected and DNA extracted for microbiome analysis using published techniques (30). A subset underwent an un-sedated, unprepared flexible sigmoidoscopy during which a pinch biopsy of the recto-sigmoid mucosa was obtained, which was snap-frozen and stored at −80° C. till the analysis. We first use Length Heterogeneity PCR (LH-PCR) fingerprinting of the 16S rRNA to rapidly survey samples and standardize the community amplification. We then interrogated the microbial taxa associated with the gut fecal microbiome using Multitag Pyrosequencing (MTPS) (16). This technique allows for rapid sequencing of multiple samples at one time yielding thousands of sequence reads per sample.
as §1, with “published.” for “published (21).”, “(5′-(6FAM)” for “(5’-(6FAM)”, “(23).” for “(22).”, “operational taxonomic units (OTUs)” for “OTUs”
MTPS: We employed the MTPS process to characterize the microbiome from the fecal and biopsy samples. Specifically, we have generated a set of 96 emulsion PCR fusion primers that contain the 454 emulsion PCR linkers on the 27F and 355R primers and a different 8 base “barcode” between the A adapter and 27F primer. Thus, each fecal sample was amplified with unique bar-coded forward 16S rRNA primers and then up to 96 samples were pooled and subjected to emulsion PCR and pyrosequenced using a GS-FLX pyrosequencer (Roche). Data from each pooled sample were “deconvoluted” by sorting the sequences into bins based on the barcodes using custom PERL scripts. Thus, we were able to normalize each sample by the total number of reads from each barcode. We have noted that ligating tagged primers to PCR amplicons distorts the abundances of the communities and thus it is critical to incorporate the tags during the original amplification step.
Microbiome Community Analysis: We identified the taxa present in each sample using the Bayesian analysis tool in Version 10 of the Ribosomal Database Project (RDP10). […] We chose this cutoff because of our a priori assumption that genera present in <1% of the community vary between individuals and have minimal contribution to the functionality of that community and 2,000 reads per sample will only reliably identify community components that are greater than 1% in abundance (16). […]

## OC[C@H]1O[C@@H](O[C@@H]2[C@@H](CO)OC(O)(CO)[C@H]2O)[C@H](O)[C@@H](O)[C@H]1O (mixture of isomers) [lactulose]
Stool microbiome
  normalized abundance of Alcaligenaceae: 12.6±9%
  normalized abundance of Bacteroidaceae: 39±35%
  normalized abundance of Enterobacteriaceae: 26±40%
  normalized abundance of Lactobacillaceae: 2±1%
  normalized abundance of Porphyromonadaceae: 14±21%
  normalized abundance of Prevotellaceae: 18±25%
  normalized abundance of Ruminococcaceae: 17±22%
  normalized abundance of Streptococcaceae: 4±10
  normalized abundance of Veillonellaceae: 15±13%
Mucosal microbiome; p 0.005
  Lachnospiraceae_Roseburia: 1.9 % abundance
Mucosal microbiome; p 0.008
  Incertae Sedis XIV_Blautia: 4.2 % abundance
Mucosal microbiome; p 0.03
  Propionibacteriaceae_Propionibacterium: 1.1 % abundance
  Rikenellaceae_Alistipes: 1.8 % abundance
  Veillonellaceae_Other: 1.1 % abundance
